Here are results for nine compounds from patent US20210386812A1, “DEVELOPMENT OF HEALTH FOOD SUPPLEMENTS AND ANTIOXIDANTS FOR CONTROLLING HYPERURICEMIA AND OXIDATIVE STRESS” (Baylor College of Medicine, priority 2018, published 2021).

Molecules are shown by their SMILES. Values joined by “and” are separate entries in the source; they are usually repeats but may differ in a detail not shown here. Identical values can stand only once. “Also recorded” adds a separate entry of the source. Like-named read-outs stand apart in the source and are kept apart here.

For data set [1] the following is noted: cited from earlier work.
Another data set concerns XO. The conditions noted are these: in vitro; cited from earlier work.
The target of data set [2] is T1, Xanthine oxidase (XO) (Homo sapiens, UniProt P47989). The data set can be described thus: Xanthine oxidase (XO) inhibition assay in a cell-free system. As to conditions: for XO activity inhibition (in words): increasing concentrations.
Description: All 72 herb extracts (100 g) are in the powder form. Each extract was dissolved in water or DMSO respectively with strong votex, at stock concentration of 50 mg/ml. The solution was kept at room temperature for 30 min before centrifugation at 14k rpm. The clear solution was used for assay of XO inhibitory activity. XO activity was determined using the method of continuous spectrophotometric rate measurements (60). The reaction mixture contained xanthine in 67 mM phosphate buffer (pH 7.4) and 20 nM XO with an activity of 5 uU/mL, with or without extract solution. After pre-incubating the extract (at 0-10 ul) with XO for 1 min at 25° C., 50 uM xanthine was added to initiate the formation of uric acid, and the increase of absorption of uric acid at 295 nm was monitored in a dynamic mode. Initial rate of XO activity was recorded. […] For initial screen of herb extracts, final concentration of each extract was 163 ug/ml. Percentage of inhibition is calculated: Percentage of inhibition=(1−test OD/blank OD)×100
XO inhibition assay for folic acid related molecules is similar to that for herb extracts. Folic acids were dissolved in DMSO. Dose-dependent of folic acids and photolysis effect were studied.
Furthermore, we performed a dose dependent XO inhibition assay for each of these 14 extracts (DMSO-soluble fractions). […] IC50 is an operational parameter defined as the concentration of inhibitor required for achieving 50% inhibition of the enzyme.
Folic acid and its two derivatives, dihydrofolic acid and tetrahydrofolic acid, were employed in the XO inhibition assay. When 20 nM XO was mixed with increasing concentrations of folic acid, dihydrofolic acid and tetrahydrofolic acid.
The initial rate of uric acid formation in the reaction system was recorded; and XO inhibition rate of each herb extract was calculated.
Furthermore, a dose dependent XO inhibition assay was performed for each of these 15 extracts. […] IC50 is an operational parameter defined as the concentration of inhibitor required for achieving 50% inhibition of the enzyme.
The subject of a further data set is serum uric acid. The data set can be described thus: Hypouricemic effect in allantoxanamide-treated mice. The data set is classed as in vivo, C57BL/6 mice. As to conditions: Allantoxanamide 200 mg/kg i.p., at both 1.5 hours and 3 hours; Allopurinol 13.3 mg/kg, recipe 41.7 and 83.4 mg/kg. On the procedure:
Recipe includes Japanese Thistle Extract, Grape Seed Extract, Amla Fruit Extract, Pine Bark Extract, Chinese Mint Extract and Folic acid. Mice were Intraperitoneally (i.p.)-injected with uricase inhibitor allantoxanamide to induce hyperuricemia in mice. […] Blood was taken from facial vein at 1.5 hour and 3 hour after the treatment. Serum uric acid level was measured the next day with a phosphotunstate method. N=4 per group.
Mouse experiment design, method and results. […] Folic acid solution was prepared separately by dissolving 2.6 mg folic acid in 1 ml 0.1 m potassium phosphate buffer, then 6 ul of this FA solution was added to the 10 ml extract solution.
Adult C57BL/6 mice (about 20 g body weight) were used. Four groups of mice (n=4 per group) were assigned for different treatments or controls (Table 12). Intraperitoneal (i.p.) injection of uricase inhibitor allantoxanamide can effectively block the conversion of uric acid to 5-hydroxyisourate and thus cause a marked increase in serum uric acid levels in mice, providing a hyperuricemic animal model (34). […] Blood was taken from facial vein at 1.5 hours and 3 hours after the treatment. Serum uric acid level was measured with a phosphotunstate method.

Data set [3] deals with T1, Xanthine oxidase (XO). The data set can be described thus: XO inhibition combination assay of herb extract with folic acid or 5-MTHF, added separately without pre-mixing. The conditions noted are these: read-out: XO activity inhibition.
Description: All 14 traditional Chinese medicine herb extracts were tested. Folic acid (0.167 uM) and extract (13.3 ug/ml) were separately added into the XO reaction system without pre-mixing. XO activity was measured.
Fresh prepared 5-MTHF (3.3 uM) and herb extract (13.3 ug/ml) was added to XO reaction system separately, XO activity was recorded.
Eight herbal extracts were selected and tested. Folic acid (0.167 uM) and each extract at a defined concentration (ug/ml) were separately added into the XO reaction system without pre-mixing. XO activity was measured.
Based on the result of dose-dependent XO inhibition experiments for herb extracts and folic acid, a relatively small concentration of each extract (a total of 14 extracts) and folic acid were utilized for a combination assay.
Folic acid (0.167 uM) and extract (13.3 ug/ml) were separately added into the XO reaction system without pre-mixing. XO activity was measured.
The inventors also tested the combination of 5-MTHF with different traditional Chinese medicine herb extracts for their effect on XO activity in vitro (FIG. 10).
Based on the result of dose-dependent XO inhibition experiments for herb extracts and folic acid, a relatively small concentration of each of 8 herbal extracts and folic acid were selected for a combination assay. […] XO activity was measured (FIG. 13).

T1 sequence (P47989 whole entry, species assumed): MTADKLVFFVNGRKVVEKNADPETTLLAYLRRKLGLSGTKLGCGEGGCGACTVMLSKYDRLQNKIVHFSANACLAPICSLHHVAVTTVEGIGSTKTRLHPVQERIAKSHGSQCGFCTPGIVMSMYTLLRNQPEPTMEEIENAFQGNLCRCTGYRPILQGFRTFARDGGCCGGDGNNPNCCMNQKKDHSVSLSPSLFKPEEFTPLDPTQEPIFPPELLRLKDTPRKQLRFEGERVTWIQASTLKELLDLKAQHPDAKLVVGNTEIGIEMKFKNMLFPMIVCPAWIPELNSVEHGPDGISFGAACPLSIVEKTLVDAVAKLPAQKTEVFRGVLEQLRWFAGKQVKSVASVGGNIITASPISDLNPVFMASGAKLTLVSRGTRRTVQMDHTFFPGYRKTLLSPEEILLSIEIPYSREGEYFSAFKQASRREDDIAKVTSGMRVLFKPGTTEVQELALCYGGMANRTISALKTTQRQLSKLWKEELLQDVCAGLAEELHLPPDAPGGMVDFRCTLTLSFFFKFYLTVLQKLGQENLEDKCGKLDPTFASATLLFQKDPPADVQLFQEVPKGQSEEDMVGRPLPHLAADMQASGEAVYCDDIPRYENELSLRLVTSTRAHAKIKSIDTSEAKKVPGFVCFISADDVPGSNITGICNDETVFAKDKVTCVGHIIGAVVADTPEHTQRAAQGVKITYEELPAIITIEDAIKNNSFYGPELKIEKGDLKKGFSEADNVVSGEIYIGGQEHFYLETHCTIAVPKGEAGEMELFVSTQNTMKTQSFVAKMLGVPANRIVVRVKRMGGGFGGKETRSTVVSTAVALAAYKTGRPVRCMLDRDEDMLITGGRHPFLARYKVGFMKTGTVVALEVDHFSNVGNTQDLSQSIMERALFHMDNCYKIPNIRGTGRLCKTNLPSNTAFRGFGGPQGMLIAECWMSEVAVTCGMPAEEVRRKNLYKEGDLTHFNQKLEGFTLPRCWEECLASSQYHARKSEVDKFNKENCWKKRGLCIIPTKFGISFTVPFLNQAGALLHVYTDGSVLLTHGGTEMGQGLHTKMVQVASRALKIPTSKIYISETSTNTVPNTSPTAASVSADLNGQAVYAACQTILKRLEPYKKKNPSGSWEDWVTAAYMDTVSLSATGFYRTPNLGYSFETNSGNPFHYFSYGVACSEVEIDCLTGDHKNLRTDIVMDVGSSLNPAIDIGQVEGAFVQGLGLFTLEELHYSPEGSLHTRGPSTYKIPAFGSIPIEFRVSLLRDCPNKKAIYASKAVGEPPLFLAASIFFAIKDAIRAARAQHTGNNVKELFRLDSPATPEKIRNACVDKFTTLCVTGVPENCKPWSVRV

Regarding `Cc1nc(-c2ccc(OCC(C)C)c(C#N)c2)sc1C(=O)O` [febuxostat], in data set [1] (in some studies), the “Patients with transaminase elevations greater than three times the upper limit of normal” value was 2-3%. Further, the “Patients with cutaneous adverse effects” value in data set [1] (initial clinical studies) is “about 2%”.

Regarding `Nc1nc2ncc(C=O)nc2c(=O)[nH]1` [6-formyl pterin], in the data set with XO, the “XO inhibitory effect (literature)” value is reported as “very potent XO inhibitor”.

Take `Nc1nc2c(c(=O)[nH]1)N=C(CNc1ccc(C(=O)N[C@@H](CCC(=O)O)C(=O)O)cc1)CN2` [dihydrofolic acid]: the “XO inhibitory effect (literature)” value in the data set with XO is listed as “stronger than that of folic acid”. Also, the “XO inhibitory potency relative to a comparator (in words)” value at Xanthine oxidase (XO) [2] (cell-free system) was “dihydrofolic acid>tetrahydrofolic>folic acid”; at Xanthine oxidase (XO) [2] (cell-free system, listed as Dihydrofolic acid) it was “more potent than folic acid”. Also, the “XO activity inhibition (in words)” value on Xanthine oxidase (XO) [2] (20 nM XO) is on record as “significantly inhibited XO activity”.

With `Oc1ncnc2[nH]ncc12` [Allopurinol], the “Serum uric acid levels” value in the data set with serum uric acid is recorded as “significantly reduced serum uric acid levels”.

As to `Nc1nc2ncc(C(=O)O)nc2c(=O)[nH]1` [pterin-6-carboxylic acid], the “XO inhibitory effect (literature)” value in the data set with XO is reported as “no XO inhibitory effect”.

Turning to `Nc1nc2c(c(=O)[nH]1)NC(CNc1ccc(C(=O)N[C@@H](CCC(=O)O)C(=O)O)cc1)CN2` (stereo partly drawn) [tetrahydrofolic acid], in the data set on XO, the “XO inhibitory effect (literature)” value is reported as “stronger than that of folic acid”. For the same compound, the “XO inhibitory potency relative to a comparator (in words)” value is on record as “more potent than folic acid” at Xanthine oxidase (XO) [2] (cell-free system) and “dihydrofolic acid>tetrahydrofolic>folic acid” at Xanthine oxidase (XO) [2] (cell-free system, listed as tetrahydrofolic). For the same compound, at Xanthine oxidase (XO) [2] (20 nM XO), the “XO activity inhibition (in words)” value is given as “significantly inhibited XO activity”.

Take `CN1c2c(nc(N)[nH]c2=O)NCC1CNc1ccc(C(=O)N[C@@H](CCC(=O)O)C(=O)O)cc1` (stereo partly drawn) [Extract 5-MTHF, 5-methyl tetrahydrofolate]: on Xanthine oxidase (XO) [2] (cell-free system), the “XO inhibitory potency relative to a comparator (in words)” value is “weaker than folic acid”. For the same compound, the “XO activity inhibition (in words)” value at Xanthine oxidase (XO) [2] (20 nM XO) is listed as “effectively inhibited XO activity; also recorded: inhibited XO activities in a concentration-dependent manner”. Further, the IC50 at Xanthine oxidase (XO) [2] (read-out: IC50 for XO inhibition, 20 nM XO, cell-free system) was ~35.6 µM and 35.6 µM.

`O=Cc1cc(O)c(O)c([N+](=O)[O-])c1` [DHNB, 3,4-Dihydroxy-5-nitrobenzaldehyde] registered a 50% inhibitory concentration (IC50) against Xanthine oxidase (XO) [2] of 3 µM.

Consider `Nc1nc2ncc(CNc3ccc(C(=O)N[C@@H](CCC(=O)O)C(=O)O)cc3)nc2c(=O)[nH]1` [folic acid], for which 0.75 µM corresponded to half-maximal inhibition on Xanthine oxidase (XO) [2] (IC50). Besides, the “XO inhibitory potency relative to a comparator (in words)” value on Xanthine oxidase (XO) [2] (cell-free system) was “stronger than Allopurinol and DHNB”. Further, on Xanthine oxidase (XO) [2] (20 nM XO), the “XO activity inhibition (in words)” value is on record as “significantly inhibited XO activity”. The inhibition at 0.167 µM on Xanthine oxidase (XO) [3] stood at 16.5%.

Broadly, the IC50 is the midpoint of a concentration-inhibition curve. The term inhibition denotes how much of the control response was suppressed.
